According to patent US8450319B2, “Pyrrolopyridazinone compound” (Ube Industries, Ltd., priority 2006, dated 2013):

Key:
PDE4 = experiment: Measurement of PDE4 enzyme inhibiting action; assay type: biochemical, human; conditions: PDE4 enzyme solution from polymorphonuclear leukocytes of healthy volunteer; 0.2 μM [3H]cAMP, 30° C., 30 minutes; read-out: PDE4 inhibition IC50 value
Experimental: Preparation of a PDE4 enzyme solution was carried out according to the method of Cooper et al. (Br. J. Pharmacol., 126, 1863 (1999)) by modifying a part thereof. Heparin-treated peripheral blood from healthy volunteer was stratified by a blood cell separating solution (Polymorphprep™, available from AXIS-SHIELD PoC AS CO.), and centrifugation was carried out at 20° C. with 1900 rpm for 27 minutes to obtain polymorphonuclear leukocytes. The polymorphonuclear leukocytes were washed with a Hanks' balanced salt solution, then, a mixed solution comprising 70% of 10 mM 3-morpholinopropane sulfonic acid buffer solution (pH 7.4) containing 1 mM EGTA, 1 mM magnesium acetate and 5 mM dithiothreitol and 30% of ethylene glycol was added thereto to dissolve the same under ice-cooling, and the obtained cell dissolved solution was used as a PDE4 enzyme solution.
Measurement of PDE4 activity was carried out according to the method of Owens, et al. (Biochem. J., 326, 53 (1997)) by modifying a part thereof. The PDE4 enzyme solution was incubated with a compound to be tested dissolved in dimethylsulfoxide in 80 mM Tris-HCl buffer solution (pH 7.4) containing 0.2 μM [^3H] cAMP, 0.1 mM cGMP, 20 mM MgCl2 and 12 mM 2-mercaptoethanol at 30° C. for 30 minutes. Trifluoroacetic acid (final concentration: 1%) was added to the mixture to stop the reaction, and the reaction mixture was added to neutral alumina column (BOND ELUT™, available from VARIAN INC.). After the column was washed with 100 mM Tris-HCl buffer solution (pH 8.0), [^3H] 5′-AMP was eluted with 2N sodium hydroxide solution, and radioactivity of the eluent was measured by a liquid scintillation analyzer.
A concentration of the compound to be tested which inhibits 50% of PDE4 activity was calculated from the relation between the concentration of the compound to be tested which had been added and PDE4 activity as an IC50 value.

cynomulgus monkey = experiment: Emetic action test in cynomulgus monkey; conditions: suspended in 0.5% aqueous methyl cellulose, administered nasally; emesis observed for 24 hours; 3 or 4 monkeys per dose
Experimental: The compound to be tested was suspended in 0.5% aqueous methyl cellulose solution (5 ml/Kg), and administered nasally.
With respect to each dose, each administered to 3 or 4 monkeys, and a dose in which emesis had not been admitted in all monkeys was made a maximum non-emesis dose.

[1] = test system: pulmonary neutrophil infiltration; experiment: Pulmonary neutrophil infiltration-inhibiting activity in SD rats (LPS inhalation, MPO activity in BALF); assay type: in vivo; conditions: @3 mg/Kg, orally 15 minutes before LPS inhalation; BAL 4 hours after LPS; MPO activity as index; inhibiting rate relative to control
Experimental: Inhalation of lipopolysaccharide (hereinafter abbreviated to as LPS) was carried out by modifying the method of Moraes et al. (Br. J. Pharmacol., 123, 631 (1998)). SD rats (male, 5-weeks old, supplied by CHARLES RIVER LABORATORIES JAPAN, INC.) fasted 24 hours before administration of a compound were kept in a plastic cage, and inhalated LPS (L2880-500MG, available from SIGMA Inc.) (0.1 mg/ml) dissolved in physiological saline for 30 minutes. An ultrasonic nebulizer (NE-U12, manufactured by Omron Corporation) was used for inhalation.
A compound to be tested is dissolved (10 ml/Kg) in mixed solution of polyethylene glycol (hereinafter abbreviated to as PEG) and water, and orally administered 15 minutes before the inhalation of LPS. For the control group, 50% PEG solution was administered.
Bronchoalveolar lavage (hereinafter abbreviated to as BAL) was carried out as mentioned below 4 hours after the inhalation of LPS. […] 3.5 ml of physiological saline containing heparin (1 U/ml) was injected by using a disposable injection syringe (5 ml volume, manufactured by Terumo Corporation), and immediately recovered. This operation was repeated four times to obtain a bronchioalveolar lavage fluid (hereinafter abbreviated to as BALF). BALF was centrifugated (at 2500 rpm, 10 minutes, 4° C.), and 1 ml of 0.5% hexadecyltrimethylammonium bromide (030-02105, available from Wako Pure Chemical Industries, Ltd.) was added to the precipitated cells. Thereafter, a freeze-thaw operation (−80° C./37° C.) was repeated three times to destroy the cells.
As an index of a number of neutrophil, measurement of myeloperoxidase (hereinafter abbreviated to as MPO) activity was carried out as follows. Measurement of MPO activity was carried out by partially modifying the method of Krawisz et al. (GASTROENTEROLOGY, 1344 (1984)). To cell dissolved solution was added 50 mM phosphate buffer solution (pH 6.0) containing o-dianisidine hydrochloride (0.2 mg/ml) and 0.005% hydrogen peroxide, and change in absorbance at 450 nm was measured. As a MPO standard substance, MPO from human sputum (available from Elastin Products Company Inc.) was used. Measurement of absorbance was carried out by using a Microplate Reader (MTP-32, manufactured by Corona Electric Co., Ltd.).
An inhibiting rate of the compound to be tested relative to the control was calculated.

| SMILES | IC50 (PDE4) [nM] | melting point [°C] | Monkey Maximum non-emesis dose (cynomulgus monkey) [mg/kg] | Rat pulmonary neutrophil infiltration-inhibiting activity [1] [%] |
| --- | --- | --- | --- | --- |
| CCc1c(-c2ccc(OC(F)F)c(OC3CC3)c2)[nH]c2cn[nH]c(=O)c12 [Example 5, 2-(3-Cyclopropoxy-4-difluoromethoxyphenyl)-3-ethyl-1,5-dihydropyrrolo[2,3-d]pyridazin-4-one] | 3.4 | 223 to 225 | >30 | – |
| CCOCc1c(-c2ccc(OC(F)F)c(OC3CC3)c2)[nH]c2cn[nH]c(=O)c12 [Example 12, 2-(3-Cyclopropoxy-4-difluoromethoxyphenyl)-3-ethoxymethyl-1,5-dihydropyrrolo[2,3-d]pyridazin-4-one] | 4.6 | 141 to 143 | 3 | – |
| O=c1[nH]ncc2[nH]c(-c3ccc(OC(F)F)c(OC4CC4)c3)c(CC3CC3)c12 [Example 15, 2-(3-Cyclopropoxy-4-difluoromethoxyphenyl)-3-cyclopropylmethyl-1,5-dihydropyrrolo[2,3-d]pyridazin-4-one] | – | 204 to 206 | – | 73 |
| O=c1[nH]ncc2[nH]c(-c3ccc(OC(F)F)c(OC4CC4)c3)c(Cc3ccccc3F)c12 [Example 22, 2-(3-Cyclopropoxy-4-difluoromethoxyphenyl)-3-(2-fluorobenzyl)-1,5-dihydropyrrolo[2,3-d]pyridazin-4-one] | – | 202 to 204 | – | 78 |
| O=c1[nH]ncc2[nH]c(-c3ccc(OC(F)F)c(OC4CC4)c3)c(COCCF)c12 [Example 61, 2-(3-Cyclopropoxy-4-difluoromethoxyphenyl)-3-(2-fluoroethoxymethyl)-1,5-dihydropyrrolo[2,3-d]pyridazin-4-one] | – | – | – | 59 |
| CC(C)COCc1c(-c2ccc(OC(F)F)c(OC3CC3)c2)[nH]c2cn[nH]c(=O)c12 [Example 62, 2-(3-Cyclopropoxy-4-difluoromethoxyphenyl)-3-isobutoxymethyl-1,5-dihydropyrrolo[2,3-d]pyridazin-4-one] | 0.41 | 162 to 164 | >10 | – |
| COCCc1c(-c2ccc(OC(F)F)c(OC3CC3)c2)[nH]c2cn[nH]c(=O)c12 [Example 66, 2-(3-Cyclopropoxy-4-difluoromethoxyphenyl)-3-(2-methoxyethyl)-1,5-dihydropyrrolo[2,3-d]pyridazin-4-one] | – | 215 to 217 | >10 | 69 |
| CC#CCc1c(-c2ccc(OC(F)F)c(OC3CC3)c2)[nH]c2cn[nH]c(=O)c12 [Example 72, 3-(2-Butynyl)-2-(3-cyclopropoxy-4-difluoromethoxyphenyl)-1,5-dihydropyrrolo[2,3-d]pyridazin-4-one] | – | 231 to 236 | >10 | 76 |
| O=C(Nc1c(Cl)cncc1Cl)c1ccc(OC(F)F)c(OCC2CC2)c1 [compound A, N-(3,5-dichloro-4-pyridyl)-3-cyclopropylmethoxy-4-difluoromethoxybenzamide, reference compound] | – | – | 0.1 | – |
